Measured values published in article PMC7367873, “Dissecting the sequence determinants for dephosphorylation by the catalytic subunits of phosphatases PP1 and PP2A” (Nature Communications, 2020).
One block for each substance: values may come before it.

Legend:
[1] = system: GFP-14-3-3β and its binding proteins; test: GFP-14-3-3β co-IP with LC-MS/MS label-free quantification, untreated versus PP1c-treated; parameters: species or system human
Experimental: (§1) HeLa Kyoto cells expressing transiently transfected pEGFP(C1)-14-3-3β or pEGFP(C1) control plasmid, were incubated with 20 nM Calyculin A (# 9902 S, Cell Signaling Technology) for 12 min. Cells were washed twice on ice with cold PBS and after addition of 500 µL lysis buffer (100 mM NaCl, 10 mM Tris, 0.1% IGEPAL, 1 mM EDTA, 1 mM EGTA, 20 nM Calyculin A, 1x cOmplete Mini protease inhibitor cocktail (Sigma), 1 mM DTT, 1 mM MnCl2) cells were scraped from plates, lysed by 10 pushes through an injection needle (21 G, BD) and the insoluble fraction was pelleted by centrifugation (10 min, 10^4 rcf, 4 °C). Supernatants were then subjected to incubation with 1 µM recombinant phosphatase or buffer for 1 h at 30 °C. Next, we subjected samples to immunoprecipitation using α-GFP nanobodies covalently coupled to agarose beads (2 h, 4 °C, obtained from the EMBL PEPcore Core Facility). Beads were then washed three times with lysis buffer and samples were eluted in 1x LDS sample buffer (Thermo Fisher Scientific) by heating to 70 °C for 10 min.
(§2) The samples were then reduced with 25 mM dithiothreitol (10 min at 70 °C) and alkylated with 55 mM chloroacetamide (room temperature, 30 min, in the dark). Proteins were run on a precast 4–12% NuPAGE gel (ThermoFisher Scientific) for about 1 cm to concentrate the sample prior to in-gel tryptic digestion, which was performed according to the standard procedures. The peptides obtained were dried to completeness and resuspended in 12 µL of buffer A (0.1% FA), and 5 µL of sample were injected per MS measurement. The experiment was carried out in three independent replicates.
(§3) The samples were analyzed by LC-MS/MS on a Dionex Ultimate 3000 nano-HPLC coupled online to a Fusion Lumos Tribrid mass spectrometer (Thermo Fisher Scientific). Peptides were delivered to a trap column (75 µm × 2 cm, packed in-house with 5 µm C18 resin; Reprosil PUR AQ, Dr. Maisch) and washed using 0.1% FA at a flow rate of 5 µL/min for 10 min. Subsequently, peptides were transferred to an analytical column (75 µm × 45 cm, packed in-house with 3 µm C18 resin; Reprosil Gold) applying a flow rate of 300 nL/min and separated using a 60 min linear gradient from 4% to 32% LC solvent B (0.1% FA, 5% DMSO in ACN) in LC solvent A (0.1% FA in 5% DMSO). The eluate from the analytical column was sprayed via a stainless steel emitter (Thermo Fisher Scientific) at a source voltage of 2.1 kV into the mass spectrometer. The transfer capillary was heated to 275 °C. The Fusion Lumos was operated in positive ionization mode and data-dependent acquisition (DDA), automatically switching between MS1 and MS2 spectrum acquisition. Full scan MS1 spectra were recorded in the Orbitrap from 360 to 1300 m/z at a resolution of 60k (automatic gain control (AGC) target value of 4e5 charges, maximum injection time (maxIT) of 50 ms). Up to 20 peptide precursors were isolated (isolation window, 1.7 m/z; maximum injection time, 25 ms; and AGC value, 1e5), fragmented by high-energy collision-induced dissociation (HCD) using 30% normalized collision energy (NCE), and analyzed at a resolution of 15k in the Orbitrap. Precursor ions that were singly charged, unassigned, or with charge states >6+ were excluded. The dynamic exclusion duration of fragmented precursor ions was 20 s.
(§4) Peptide and protein identification and LFQ were performed using MaxQuant software (version 1.6.1.0)[64] by searching the data against all canonical protein sequences as annotated in the Swissprot reference database (human proteins only, 20193 entries, downloaded 22 March 2016, internally annotated with PFAM domains) using the embedded search engine Andromeda[65]. The MaxQuant search was performed using two variable modifications; oxidation of methionine and N-terminal protein acetylation. Carbamidomethylation on cysteines was specified as a fixed modification. Trypsin (Trypsin/P) was specified as the proteolytic enzyme with up to two allowed missed cleavage sites.

GFP-14-3-3β = GFP-14-3-3β co-IP with LC-MS/MS, untreated GFP-14-3-3β versus GFP control (14-3-3 interactome); type: binding, human
Experimental: as §1, §2, §3, §4

[2] = PP1 vs untreated, label-free quantification
[3] = untreated vs GFP, label-free quantification
[4] = GFP-14-3-3β co-IP LC-MS/MS, PP1 vs untreated, student's t-test, label-free quantification, 3 replicates each
[5] = GFP-14-3-3β co-IP LC-MS/MS, untreated vs GFP, student's t-test, label-free quantification, 3 replicates each
[6] = pairwise comparison PP1 vs untreated, student's t-test, 3 replicates each, LC-MS/MS label-free quantification
[7] = pairwise comparison untreated GFP-14-3-3β vs GFP, student's t-test, 3 replicates each, LC-MS/MS label-free quantification
[8] = log2 difference, pairwise comparison PP1 vs untreated, label-free quantification, 3 replicates each
[9] = log2 difference, pairwise comparison untreated vs GFP, label-free quantification, 3 replicates each
[10] = pairwise comparison PP1 vs untreated
[11] = pairwise comparison untreated vs GFP
[12] = PP1 vs untreated, LFQ intensities, 3 replicates each
[13] = untreated vs GFP, LFQ intensities, 3 replicates each
[14] = PP1 vs untreated, LFQ intensities, replicates 1-3
[15] = untreated vs GFP, LFQ intensities, replicates 1-3

- Difference (log2), PP1 vs untreated [1, 2]: 0.7684 log2
Substance: DYNC1H1
- Difference (log2), untreated vs GFP (GFP-14-3-3β; [3]): 3.605 log2

- Difference (log2), PP1 vs untreated [1, 4]: -0.3347 log2
Substance: HSPA8
- Difference (log2), untreated vs GFP (GFP-14-3-3β; [5]): -0.3706 log2

- Difference (log2), PP1 vs untreated [1, 6]: -2.787 log2
Substance: YAP1
- Difference (log2), untreated vs GFP (GFP-14-3-3β; [7]): 8.338 log2

- Difference (log2), PP1 vs untreated [1, 4]: -0.3516 log2
Substance: TRIM29
- Difference (log2), untreated vs GFP (GFP-14-3-3β; [5]): 0.4899 log2

- Difference (log2), PP1 vs untreated [1, 6]: -3.205 log2
Substance: PIK3C2B
- Difference (log2), untreated vs GFP (GFP-14-3-3β; [7]): 5.48 log2

- Difference (log2), PP1 vs untreated [1, 6]: -3.308 log2
Substance: TPM4
- Difference (log2), untreated vs GFP (GFP-14-3-3β; [7]): 0.1774 log2

- Difference (log2), PP1 vs untreated [1, 2]: 1.198 log2
Substance: MYO5B
- Difference (log2), untreated vs GFP (GFP-14-3-3β; [3]): -1.223 log2

- Difference (log2), PP1 vs untreated [1, 8]: 1.3958
Substance: NSUN2
- Difference (log2), untreated vs GFP (GFP-14-3-3β; [9]): -0.08076

- Difference (log2), PP1 vs untreated [1, 10]: 0.1471 log2
Substance: HDAC2
- Difference (log2), untreated vs GFP (GFP-14-3-3β; [11]): 0.5775 log2

- Difference (log2), PP1 vs untreated [1, 6]: -2.217 log2
Substance: FLNA
- Difference (log2), untreated vs GFP (GFP-14-3-3β; [7]): -0.8027 log2

- Difference (log2), PP1 vs untreated [1, 6]: -2.609 log2
Substance: VPS13D
- Difference (log2), untreated vs GFP (GFP-14-3-3β; [7]): 3.223 log2

- Difference (log2), PP1 vs untreated [1, 6]: -5.672 log2
Substance: DENND4A
- Difference (log2), untreated vs GFP (GFP-14-3-3β; [7]): 5.3156 log2

- Difference (log2), PP1 vs untreated [1, 10]: 0.1332 log2
Substance: SUPT16H
- Difference (log2), untreated vs GFP (GFP-14-3-3β; [11]): 0.2233 log2

- Difference (log2), PP1 vs untreated [1, 10]: 0.07589 log2
Substance: TUBA1B
- Difference (log2), untreated vs GFP (GFP-14-3-3β; [11]): -0.8319 log2

- Difference (log2), PP1 vs untreated [1, 12]: 0.3367 log2
Substance: EEF1G
- Difference (log2), untreated vs GFP (GFP-14-3-3β; [13]): -0.3337 log2

- Difference (log2), PP1 vs untreated [1, 6]: -3.693 log2
Substance: MYCBP2
- Difference (log2), untreated vs GFP (GFP-14-3-3β; [7]): 7.929 log2

- Difference (log2), PP1 vs untreated [1, 4]: -0.2351 log2
Substance: PSIP1
- Difference (log2), untreated vs GFP (GFP-14-3-3β; [5]): 1.521 log2

- Difference (log2), PP1 vs untreated [1, 14]: -1.253 log2
Substance: BRAF
- Difference (log2), untreated vs GFP (GFP-14-3-3β; [15]): 7.361 log2

- Difference (log2), PP1 vs untreated [1, 10]: 0.02924 log2
Substance: STOM
- Difference (log2), untreated vs GFP (GFP-14-3-3β; [11]): -0.5691 log2

- Difference (log2), PP1 vs untreated [1, 8]: 1.388
Substance: PFKP
- Difference (log2), untreated vs GFP (GFP-14-3-3β; [9]): -0.1859

- Difference (log2), PP1 vs untreated [1, 8]: 1.371
Substance: ATP5B
- Difference (log2), untreated vs GFP (GFP-14-3-3β; [9]): -0.3021

- Difference (log2), PP1 vs untreated [1, 4]: -0.475 log2
Substance: YWHAB
- Difference (log2), untreated vs GFP (GFP-14-3-3β; [5]): 6.723 log2

- Difference (log2), PP1 vs untreated [1, 2]: 0.961 log2
Substance: IFI16
- Difference (log2), untreated vs GFP (GFP-14-3-3β; [3]): 0.868 log2

- Difference (log2), PP1 vs untreated [1, 14]: -0.8647 log2
Substance: PMS2
- Difference (log2), untreated vs GFP (GFP-14-3-3β; [15]): 0.6772 log2

- Difference (log2), PP1 vs untreated [1, 4]: -0.4869 log2
Substance: PNN
- Difference (log2), untreated vs GFP (GFP-14-3-3β; [5]): 2.978 log2

- Difference (log2), PP1 vs untreated [1, 2]: 0.7419 log2
Substance: SSRP1
- Difference (log2), untreated vs GFP (GFP-14-3-3β; [3]): 1.339 log2

- Difference (log2), PP1 vs untreated [1, 10]: 0.26 log2
Substance: PABPC1
- Difference (log2), untreated vs GFP (GFP-14-3-3β; [11]): 0.5949 log2

- Difference (log2), PP1 vs untreated [1, 10]: 0.1738 log2
Substance: TRIM25
- Difference (log2), untreated vs GFP (GFP-14-3-3β; [11]): -0.2184 log2

- Difference (log2), PP1 vs untreated [1, 14]: -2.011 log2
Substance: PPIA
- Difference (log2), untreated vs GFP (GFP-14-3-3β; [15]): -0.5989 log2

- Difference (log2), PP1 vs untreated [1, 4]: -0.2892 log2
Substance: RNF5
- Difference (log2), untreated vs GFP (GFP-14-3-3β; [5]): 0.3906 log2

- Difference (log2), PP1 vs untreated [1, 4]: -0.7087 log2
Substance: DDX21
- Difference (log2), untreated vs GFP (GFP-14-3-3β; [5]): 2.481 log2

- Difference (log2), PP1 vs untreated [1, 4]: -0.1517 log2
Substance: EPRS
- Difference (log2), untreated vs GFP (GFP-14-3-3β; [5]): -0.2032 log2

- Difference (log2), PP1 vs untreated [1, 12]: 0.7153 log2
Substance: CD109
- Difference (log2), untreated vs GFP (GFP-14-3-3β; [13]): -1.476 log2

- Difference (log2), PP1 vs untreated [1, 6]: -4.48 log2
Substance: WWTR1
- Difference (log2), untreated vs GFP (GFP-14-3-3β; [7]): 5.399 log2
